According to ChEMBL document CHEMBL2424654, “Optimization of enzyme-based ultrasonic/microwave-assisted extraction and evaluation of antioxidant activity of orcinol glucoside from the rhizomes of Curculigo orchioides Gaertn” (Med Chem Res, 2013):
≈ marks a conversion by molar mass, not a printed value. Calls of active or inactive are those of the source. No cut-off for these calls is given here.

How the values were obtained:
Assay type in all cases: functional
[1] = Antioxidant activity assessed as reducing power at 0.5 to 2 mg/ml
[2] = system: Radical scavenging activity; assay: Antioxidant activity assessed as DPPH radical scavenging activity at 2 mg/ml
[3] = system: Radical scavenging activity; assay: Antioxidant activity assessed as DPPH radical scavenging activity
[4] = Antioxidant activity assessed as hydroxyl radical scavenging activity
[5] = Antioxidant activity assessed as superoxide anion radical scavenging activity at 2 mg/ml
[6] = Antioxidant activity assessed as hydroxyl radical scavenging activity at 2 mg/ml

SMILES: Cc1cc(O)cc(O[C@@H]2O[C@H](CO)[C@@H](O)[C@H](O)[C@H]2O)c1
- Activity [1]: Active
- Activity [2]: 69.3%
- IC50 [3]: 900 µg/mL (≈ 3.14 mM)
- Activity [4]: Dose-dependent effect
- Activity [5]: 70.2%
- Activity [6]: 77.5%
